The values below come from US8871754B2, “Compounds and compositions for the treatment of parasitic diseases” (IRM LLC, priority 2012, dated 2014).

Assay [1] concerns P. yoelii sporozoites in HepG2-A16-CD81EGFP cells. In words: P. yoelii sporozoite invasion assay (proliferation of parasite in infected liver cells, immunofluorescence). Format: cell-based. To be noted: Plasmodium yoelii, 48 hours, parasite area by immunofluorescence, read-out: EC50 (nM), inhibitory efficacy by the P. yoelii sporozoite invasion assay. The text has this: Assay for Profiferation of Parasite in Infected Liver Cells
Compounds of the invention can be assayed to measure their capacity to inhibit proliferation of parasites in liver cells. The proliferation is quantified by determine the number of infected cells by immunofluorescence.
Due to the difficulty of successfully infecting immortalized human liver cell lines with the human malaria sporozoites (liver-stage parasite), rodent malaria sporozoites from Plasmodium yoelii (17XNL) and P. berghei (ANKA) are the preferred surrogate. Sporozoites are obtained from Anopheles stephensi mosquitoes supplied by the New York University Insectary, which ships the malaria-infected mosquitoes 10-13 days following the ingestion of an infective blood meal.
A transgenic HepG2 cell line expressing the tetraspanin CD81 receptor (HepG2-A16-CD81^EGFP) is used to increase the infectivity rate of rodent-malaria sporozoites into human cells. HepG2-A16-CD81^EGFP cells are stably transformed to express a GFP-CD81 fusion protein. A continuous in vitro culture of this line was maintained at 37° C. in 4% CO2 in complete media (CM) which contains: DMEM (Invitrogen, Carlsbad, USA) supplemented with 10% FCS, 0.29 mg/ml glutamine, 100 units penicillin and 100 μg/ml streptomycin (SigmaAldrich, USA).
P. yoelii Sporozoite Invasion Assay
Twenty to twenty-six hours prior to sporozoite infection, 7.5×10^3 HepG2-A16-CD81^EGFP cells are seeded into 384-well plates (Aurora 384 IQ-EB black plates with clear bottoms; 50 μl of 1.5×10^5 cells/ml in CM). These plates are incubated at 37° C. with 4% CO2 overnight. Two hours prior to infection, 50 nl of compound dissolved in DMSO (0.1% final DMSO concentration per well) were transferred with a PinTool (GNF Systems) into the assay plates (10 μM final concentration). A 1:3 serial dilution of atovaquone (10 μM at the highest final concentration) and wells treated only with DMSO were used as positive and negative controls, respectively.
Freshly dissected salivary glands from infected mosquitoes were homogenized in a glass tissue grinder, filtered twice through Nylon cell strainers (40 μm pore size, BD Falcon) and counted using a hemocytometer. The assay plate with HepG2-A16-CD81^EGFP cells and compound were then infected with 8×10^3 sporozoitesper well and the plates are subjected to a centrifugal force of 650×g to pellet the sporozoites onto the liver cell monolayer. The assay plate is incubated at 37° C. for 2 hours to permit sporozoite invasion, then the media is aspirated from the media plate, and replaced with 50 μl CM (containing a 5× concentration of penicillin/streptomycin; 500 units penicillin and 0.5 mg streptomycin per ml) per well. 50 nl of compound is re-introduced by PinTool and the assay plate incubated for 48 hours at 37° C. before quantification of infected cells by immunofluorescence.
Atovaquone and uninfected wells were used as controls on each plate. Two replicate plates are tested for each assay.
Immunofluorescence Quantification of Exo-Erythrocytic Forms (EEFs)
After fixing the cells by addition of 12.5 μl of 20% solution of paraformaldehyde (EMS, Hatfield, USA) to each assay well (4% final formaldehyde concentration), membranes were permeabilized with 0.5% Triton-X-100 (Thermo Fisher Scientific) and EEFs were stained using a mouse polyclonal serum raised against the Plasmodium yoelii heat shock protein 70 (PyHSP70), a DyLight 649 goat anti-mouse IgG, Fc(gamma) fragment specific secondary antibody (Jackson Immuno Research, Cat#115-495-071) and the Hoechst 33342 nucleic acid dye (Invitrogen, Carlsbad, USA). Stained EEFs were then quantified using the Opera Confocal High Content Screening System (Perkin Elmer, Waltham, USA). Images were collected using a 20× objective lens (20×/0.45 NA, LWD Plan Fluor, Olympus) at a binning of 2, using a 365 nm Xeon arc lamp illumination to detect the Hoechst-labeled nuclei and 635 nm laser line to excite DyLight649-labeled parasites. […]

Assay [2] concerns P. falciparum (NF54 or 3D7 strain) in infected human erythrocytes. Nature of the assay: Assay for P. falciparum proliferation in infected human blood cells (SYBR Green). Format: cell-based. To be noted: Plasmodium falciparum, Erythrocyte; NF54 or 3D7 strain, 72 hours, SYBR Green fluorescence; read-out: EC50 (nM), inhibitory efficacy in delaying P. falciparum proliferation in infected human blood cells. On the procedure: Assay for P. falciparum Proliferation in Infected Human Blood Cells
Compounds of the invention can be assayed to measure their capacity to inhibit proliferation of P. falciparum parasitemia in infected red blood cells. This parasite proliferation assay measures the increase in parasite DNA content using a DNA intercalating dye, SYBR Green® (INVITROGEN®) which has a high affinity for double stranded DNA.
NF54 or 3D7 P. falciparum strain is grown in complete culturing media until parasitemia reaches 3% to 8% with O+ human erythrocytes. […] 20 μl of screening media is dispensed into 384 well assay plates. 50 nl of compounds of the invention (in DMSO), including antimalarial controls (mefloquine, pyrimethamine and artemisinin), are then transferred into the assay plates, as well as DMSO alone to serve as a negative control for inhibition. Then 30 μl of a suspension of a NF54 or 3D7 P. falciparum infected erythrocytes in screening media is dispensed into the assay plates such that the final hematocrit is 2.5% with a final parasitemia of 0.3%. The plates are placed in a 37° C. incubator for 72 hours in a low oxygen environment containing 93% N2, 4% CO2, and 3% O2 gas mixture. 10 μl of lysis buffer (saponin, triton-X, EDTA) containing a 10× solution of SYBR Green I® in RPMI media is dispensed into the plates. The plates are lidded and kept at room temperature overnight for the lysis of the infected red blood cells. The fluorescence intensity is measured (excitation […], emission 530 nm) using the Envision™ system (Perkin Elmer). The percentage inhibition of 50%, […], is calculated for each compound.

Structures are written as SMILES.

In the case of `CN(C(=O)c1ccn2ncc(-c3ccc(N)nc3)c2c1)c1ccc(C#N)cc1` [Example 41, 3-(6-aminopyridin-3-yl)-N-(4-cyanophenyl)-N-methylpyrazolo[1,5-a]pyridine-5-carboxamide], the EC50 in assay [1] is 14.3 nM; in assay [2], 2 nM.
Turning to `CN(C(=O)c1ccn2ncc(-c3ccc(C(F)(F)F)cc3)c2c1)c1ccc(C#N)cn1` [Example 13, N-(5-cyanopyridin-2-yl)-N-methyl-3-(4-(trifluoromethyl)phenyl)pyrazolo[1,5-a]pyridine-5-carboxamide], the EC50 amounted to 17.9 nM in assay [1] and 8 nM in assay [2].
The corresponding values for `CN(C(=O)c1ccn2ncc(-c3ccc(C(N)=O)cc3)c2c1)c1ccc(C#N)cc1` [Example 19, 3-(4-carbamoylphenyl)-N-(4-cyanophenyl)-N-methylpyrazolo[1,5-a]pyridine-5-carboxamide] are 4.3 nM and 1 nM.
As to `CN(C(=O)c1ccn2ncc(-c3ccc(C(N)=O)cn3)c2c1)c1ccc(C#N)cc1` [Example 27, 3-(5-carbamoylpyridin-2-yl)-N-(4-cyanophenyl)-N-methylpyrazolo[1,5-a]pyridine-5-carboxamide], the EC50 turned out to be 201 nM in assay [1] and 10 nM in assay [2].
In the same order, the values of `CN(C(=O)c1ccn2ncc(-c3ccc(C(F)(F)F)cc3)c2c1)c1ccc(S(C)(=O)=O)cn1` [Example 34, N-methyl-N-(5-(methylsulfonyl)114yridine-2-yl)-3-(4-(trifluoromethyl)phenyl)pyrazolo[1,5-a]pyridine-5-carboxamide] are 53.2 nM and 22 nM.
In the same order, the values of `CN(C(=O)c1ccn2ncc(-c3ccc(N)nc3)c2c1)c1ccc(C#N)cn1` [Example 54, 3-(6-aminopyridin-3-yl)-N-(5-cyanopyridin-2-yl)-N-methylpyrazolo[1,5-a]pyridine-5-carboxamide] are 79 nM and 9 nM.
The corresponding values for `CNC(=O)c1ccc(-c2cnn3ccc(C(=O)N(C)c4ccc(C#N)cn4)cc23)cc1` [Example 75, N-(5-cyanopyridin-2-yl)-N-methyl-3-(4-(methylcarbamoyl)phenyl)pyrazolo[1,5-a]pyridine-5-carboxamide] are 2.25 nM and 4 nM.
As for `CN(C(=O)c1ccn2ncc(-c3ccc(C(N)=O)cc3)c2c1)c1ccc(F)cc1` [Example 20, 3-(4-carbamoylphenyl)-N-(4-fluorophenyl)-N-methylpyrazolo[1,5-a]pyridine-5-carboxamide], the EC50 in assay [1] stood at 13.5 nM; in assay [2] it was 9 nM.
As for `CN(C(=O)c1ccn2ncc(-c3ccc(C(F)(F)F)cn3)c2c1)c1ccc(C#N)cn1` [Example 25, N-(5-cyanopyridin-2-yl)-N-methyl-3-(5-(trifluoromethyl)109yridine-2-yl)pyrazolo[1,5-a]pyridine-5-carboxamide], the EC50 worked out at 229 nM in assay [1] and 7 nM in assay [2].
With `CN(C(=O)c1ccn2ncc(-c3ccc(C(F)(F)F)cc3)c2c1)c1ccc(C#N)cc1` [Example 1, N-(4-cyanophenyl)-N-methyl-3-(4-(trifluoromethyl)phenyl)pyrazolo[1,5-a]pyridine-5-carboxamide], the results for the EC50 in assay [1] and in assay [2] were 7.3 nM and 8 nM, respectively.
Take `CC(=O)Nc1ccc(-c2cnn3ccc(C(=O)N(C)c4ccc(C#N)cc4)cc23)cn1` [Example 18, 3-(6-acetamidopyridin-3-yl)-N-(4-cyanophenyl)-N-methylpyrazolo[1,5-a]pyridine-5-carboxamide]: the EC50 in assay [2] was 3 nM.
As for `C[C@@H](N)C(=O)Nc1ccc(-c2cnn3ccc(C(=O)N(C)c4ccc(C#N)cc4)cc23)cc1` [Example 44, (R)-3-(4-(2-aminopropanamido)phenyl)-N-(4-cyanophenyl)-N-methylpyrazolo[1,5-a]pyridine-5-carboxamide], the EC50 in assay [2] came out at 1 nM.
Same read-out and setting: the result for `Cc1ccc(N(C)C(=O)c2ccn3ncc(-c4ccc(C(N)=O)cc4)c3c2)nc1` [Example 63, 3-(4-carbamoylphenyl)-N-methyl-N-(5-methylpyridin-2-yl)pyrazolo[1,5-a]pyridine-5-carboxamide] reads 6 nM.
Same read-out and setting: then `CN(C(=O)c1ccc(C(F)(F)F)nc1)c1ccn2ncc(-c3ccc(C(F)(F)F)cc3)c2c1` [Example 37, N-methyl-6-(trifluoromethyl)-N-(3-(4-(trifluoromethyl)phenyl)pyrazolo[1,5-a]pyridine-5-yl)nicotinamide], with 121 nM; and `Fc1ccc(OCc2ccn3ncc(-c4ccc(C(F)(F)F)cc4)c3c2)cc1` [Example 8, 5-((4-fluorophenoxy)methyl)-3-(4-(trifluoromethyl)phenyl)pyrazolo[1,5-a]pyridine], with 532 nM.
Still for that read-out and setting: then `CN(Cc1ccn2ncc(-c3ccc(C(F)(F)F)cc3)c2c1)c1ccc(Cl)cc1` [Example 6, 4-chloro-N-methyl-N-((3-(4-(trifluoromethyl)phenyl)pyrazolo[1,5-a]pyridine-5-yl)methyl)aniline], with 284 nM; and `CN(C(=O)c1ccc(C2CC2)nc1)c1ccn2ncc(-c3ccc(C(F)(F)F)cc3)c2c1` [Example 49, 6-cyclopropyl-N-methyl-N-(3-(4-(trifluoromethyl)phenyl)pyrazolo[1,5-a]pyridin-5-yl)nicotinamide], with 2290 nM.
Consider `CN(C(=O)c1ccn2ncc(-c3cnc(N)c(C#N)c3)c2c1)c1ccc(C#N)cn1` [Example 85, 3-(6-amino-5-cyanopyridin-3-yl)-N-(5-cyanopyridin-2-yl)-N-methylpyrazolo[1,5-a]pyridine-5-carboxamide], for which the EC50 in assay [2] was determined as 16 nM.
For the compound `CN(C(=O)c1ccn2ncc(-c3cnc(N)c(C(F)(F)F)c3)c2c1)c1ccc(C#N)cn1` [Example 84, 3-(6-amino-5-(trifluoromethyl)pyridin-3-yl)-N-(5-cyanopyridin-2-yl)-N-methylpyrazolo[1,5-a]pyridine-5-carboxamide], in assay [2], the EC50 came out at 6 nM.
Still for that read-out and setting: the result for `CNc1nnc(-c2ccc(-c3cnn4ccc(N(C)C(=O)c5ccc(F)cc5)cc34)cc2)s1` [Example 57, 4-fluoro-N-methyl-N-(3-(4-(5-(methylamino)-1,3,4-thiadiazol-2-yl)phenyl)pyrazolo[1,5-a]pyridin-5-yl)benzamide] reads 4 nM.
